These results are taken from US20230203060A1 (GENFLEET THERAPEUTICS (SHANGHAI) INC., priority 2020, published 2023).

One may read the IC50 as the point on the concentration scale where inhibition reaches its midpoint.

Experiment [1] relates to phosphorylated ERK downstream of KRAS G12C in MIA PaCa2 cells. In words: Cell p-ERK detection experiment (HTRF) in MIA PaCa2. The class given is cell-based, human. The note with it: Homo sapiens, MIA PaCa-2, 2 h, MIA PaCa2 cells, 2 hours with compound, Advance ERK phospho-T202/Y204 HTRF kit; read-out: p-ERK IC50. Summed up:
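KRAS G12C-mutant MIA PaCa2 cells (2.5E4 per well, overnight) exposed 2 h to a 3.16-fold compound dilution series at 0.1% DMSO. Lysates probed 4 h with HTRF antibodies to ERK phospho-T202/Y204; inhibition versus DMSO control and blank, IC50 by four-parameter fit.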
(In TR-FRET formats the signal depends on donor and acceptor labels being close together.)

The target of another experiment is T1, KRAS G12C (Homo sapiens, UniProt P01116, G12C).
T1 construct: purchased Reactionbiology
In words: KRAS G12C NEA-HTRF experiment (SOS1-catalyzed displacement of GDP by GTP). The class given is biochemical. The method in brief: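 His-tagged KRAS G12C preloaded with DY647-GDP was preincubated 15 min at 20 °C with compound, then exchanged with SOS1 (0.2 μM working solution) and GTP (200 μM working solution) for 2 h at 20 °C in the dark. HTRF 665/615 nm ratio with anti-His-Tb was normalised to T0 and no-compound controls; IC50 by four-parameter fit.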

T1 sequence (P01116 1-188 isoform P01116-2 G12C): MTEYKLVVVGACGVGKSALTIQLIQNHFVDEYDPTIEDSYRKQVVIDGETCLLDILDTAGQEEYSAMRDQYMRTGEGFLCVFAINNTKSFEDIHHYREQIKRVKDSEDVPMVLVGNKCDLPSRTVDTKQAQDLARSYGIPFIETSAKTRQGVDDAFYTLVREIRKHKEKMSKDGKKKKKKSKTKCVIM

As to `C=CC(=O)N1CCN2C(=O)c3c(N4CCC[C@@]4(C)C(=O)NC)nc(-c4c(O)cccc4F)c(Cl)c3OC[C@H]2C1` [Z462, (2S)-1-((6aR)-8-acryloyl-4-chloro-3-(2-fluoro-6-hydroxyphenyl)-12-oxo-6,6a,7,8,9,10-hexahydro-12H-pyrazino[2,1-c]pyrido[3,4-f][1,4]oxazepin-1-yl)-N,2-dimethylpyrrolidine-2-carboxamide], the IC50 in experiment [1] is 165 nM; on KRAS G12C, 131 nM.

As to `C=CC(=O)N1CCN2C(=O)c3c(N4C[C@@H](C)N(C)C[C@@H]4C)nc(-c4ccccc4F)c(Cl)c3OC[C@H]2C1` [Z464], the IC50 in experiment [1] came out at 523 nM; on KRAS G12C it was 1930 nM.

With `C=CC(=O)N1CCN2C(=O)c3c(N4CC(N5CCN(C)CC5)CC4(C)C)nc(-c4c(O)cccc4F)c(Cl)c3OC[C@H]2C1` (stereo partly drawn) [Z467, (6aR)-8-acryloyl-4-chloro-1-(2,2-dimethyl-4-(4-methylpiperazin-1-yl)pyrrolidin-1-yl)-3-(2-fluoro-6-hydroxyphenyl)-6,6a,7,8,9,10-hexahydro-12H-pyrazino[2,1-c]pyrido[3,4-f][1,4]oxazepin-12-one], the results for the IC50 (in experiment [1]; at KRAS G12C) were 11 nM and 7.7 nM, respectively.

Regarding `C=CC(=O)N1CCN2C(=O)c3c(N4C[C@H](N5CCN(C)CC5)C[C@@H]4C)nc(-c4ccccc4F)c(Cl)c3OC[C@H]2C1` [Z470-1], the IC50 in experiment [1] came to 255 nM; on KRAS G12C, 258 nM.

As to `C=CC(=O)N1CCN2C(=O)c3c(N4C[C@@H](N5CCN(C)CC5)C[C@@H]4C)nc(-c4ccccc4F)c(Cl)c3OC[C@H]2C1` [Z470-2], the IC50 amounted to 24 nM in experiment [1] and 24.7 nM on KRAS G12C.

`C=CC(=O)N1CCN2C(=O)c3c(N4C[C@@H](N(C)C)CC4(C)C)nc(-c4cccc(F)c4F)c(Cl)c3OC[C@H]2C1` [Z473-1, (R)-8-acryloyl-4-chloro-3-(2,3-difluorophenyl)-1-((S)-4-(dimethylamino)-2,2-dimethylpyrrolidin-1-yl)-6,6a,7,8,9,10-hexahydro-12H-pyrazino[2,1-c]pyrido[3,4-f][1,4]oxazepin-12-one]: the IC50 worked out at 151 nM in experiment [1] and 105 nM on KRAS G12C.

Consider `C=CC(=O)N1CCN2C(=O)c3c(N4CC(N5CCN(C)CC5)CC4(C)C)nc(-c4ccccc4F)c(F)c3OC[C@H]2C1` (stereo partly drawn) [Z474, (6aR)-8-acryloyl-1-(2,2-dimethyl-4-(4-methylpiperazin-1-yl)pyrrolidin-1-yl)-4-fluoro-3-(2-fluorophenyl)-6,6a,7,8,9,10-hexahydro-12H-pyrazino[2,1-c]pyrido[3,4-f][1,4]oxazepin-12-one], for which the IC50 is 90 nM in experiment [1] and 105 nM on KRAS G12C.

Consider `C=CC(=O)N1CCN2C(=O)c3c(N4C[C@@H](N(C)C)CC4(C)C)nc(-c4c(F)ccc(F)c4O)c(Cl)c3OC[C@H]2C1` [Z475-1, (6aR)-8-acryloyl-4-chloro-3-(3,6-difluoro-2-hydroxyphenyl)-1-((S)-4-(dimethylamino)-2,2-dimethylpyrrolidin-1-yl)-6,6a,7,8,9,10-hexahydro-12H-pyrazino[2,1-c]pyrido[3,4-f][1,4]oxazepin-12-one], for which the IC50 in experiment [1] turned out to be 35 nM; on KRAS G12C it was 22.5 nM.

As to `C=CC(=O)N1CCN2C(=O)c3c(N4CCN(C(=O)CC)C[C@@H]4C)nc(-c4ccccc4F)c(Cl)c3OC[C@H]2C1` [Z477, (R)-8-acryloyl-4-chloro-3-(2-fluorophenyl)-1-((S)-2-methyl-4-propionylpiperazin-1-yl)-6,6a,7,8,9,10-hexahydro-12H-pyrazino[2,1-c]pyrido[3,4-f][1,4]oxazepin-12(6aH)-one], the IC50 in experiment [1] was found to be 61 nM; on KRAS G12C, 57 nM.

`C=CC(=O)N1CCN2C(=O)c3c(N4C[C@@H](N5CC(OC)C5)CC4(C)C)nc(-c4ccccc4F)c(Cl)c3OC[C@H]2C1` [Z479-1, (R)-8-acryloyl-4-chloro-3-(2-fluorophenyl)-1-((S)-4-(3-methoxyazetidin-1-yl)-2,2-dimethylpyrrolidin-1-yl)-6,6a,7,8,9,10-hexahydro-12H-pyrazino[2,1-c]pyrido[3,4-f][1,4]oxazepin-12-one]: the IC50 in experiment [1] is 30 nM; at KRAS G12C, 65.2 nM.

With `C=CC(=O)N1CCN2C(=O)c3c(N4C[C@@H](N5CC(F)C5)CC4(C)C)nc(-c4ccccc4F)c(Cl)c3OC[C@H]2C1` [Z480-1, (R)-8-acryloyl-4-chloro-1-((S)-4-(3-fluoroazetidin-1-yl)-2,2-dimethylpyrrolidin-1-yl)-3-(2-fluorophenyl)-6,6a,7,8,9,10-hexahydro-12H-pyrazino[2,1-c]pyrido[3,4-f][1,4]oxazepin-12-one], the IC50 in experiment [1] is 13 nM; at KRAS G12C, 17.9 nM.

For the compound `C=CC(=O)N1CCN2C(=O)c3c(N4C[C@@H](O)CC4(C)C)nc(-c4c(N)cccc4F)c(F)c3OC[C@H]2C1` [Z481, (6aR)-8-acryloyl-3-(2-amino-6-fluorophenyl)-4-fluoro-1-((S)-4-hydroxy-2,2-dimethylpyrrolidin-1-yl)-6,6a,7,8,9,10-hexahydro-12H-pyrazino[2,1-c]pyrido[3,4-f][1,4]oxazepin-12-one], the IC50 in experiment [1] came out at 13 nM; at KRAS G12C, 42 nM.

Regarding `C=CC(=O)N1CCN2C(=O)c3c(N4CC[C@@H](N(C)C)C4(C)C)nc(-c4ccccc4F)c(Cl)c3OC[C@H]2C1` [Z502-1, (6aR)-8-acryloyl-4-chloro-1-(3-(dimethylamino)-2,2-dimethylpyrrolidin-1-yl)-3-(2-fluorophenyl)-6,6a,7,8,9,10-hexahydro-12H-pyrazino[2,1-c]pyrido[3,4-f][1,4]oxazepin-12(6aH)-one], the IC50 in experiment [1] is 196 nM; at KRAS G12C, 280 nM.

As to `C=CC(=O)N1CCN2C(=O)c3c(N4CC[C@H](N(C)C)C4(C)C)nc(-c4ccccc4F)c(Cl)c3OC[C@H]2C1` [Z502-2, (6aR)-8-acryloyl-4-chloro-1-(3-(dimethylamino)-2,2-dimethylpyrrolidin-1-yl)-3-(2-fluorophenyl)-6,6a,7,8,9,10-hexahydro-12H-pyrazino[2,1-c]pyrido[3,4-f][1,4]oxazepin-12(6aH)-one], the IC50 was found to be 124 nM in experiment [1] and 160 nM on KRAS G12C.

Take `C=CC(=O)N1CCN2C(=O)c3c(N4CCN(C)C[C@@H]4C)nc(-c4c(N)cccc4F)c(Cl)c3OC[C@H]2C1` [Z503, (6aR)-8-acryloyl-3-(2-amino-6-fluorophenyl)-4-chloro-1-((S)-2,4-dimethylpiperazin-1-yl)-6,6a,7,8,9,10-hexahydro-12H-pyrazino[2,1-c]pyrido[3,4-f][1,4]oxazepin-12-one]: the results for the IC50 (in experiment [1]; on KRAS G12C) were 42 nM and 176 nM, respectively.

With `C=CC(=O)N1CCN2C(=O)c3c(N4CCC(OC)C4(C)C)nc(-c4c(N)cccc4F)c(Cl)c3OC[C@H]2C1` (stereo partly drawn) [Z506, (6aR)-8-acryloyl-3-(2-amino-6-fluorophenyl)-4-chloro-1-(3-methoxy-2,2-dimethylpyrrolidin-1-yl)-6,6a,7,8,9,10-hexahydro-12H-pyrazino[2,1-c]pyrido[3,4-f][1,4]oxazepin-12-one], the IC50 was 11 nM in experiment [1] and 18.3 nM at KRAS G12C.

With `C=CC(=O)N1CCN2C(=O)c3c(N4CC(N5CCC(F)(F)C5)CC4(C)C)nc(-c4ccccc4F)c(Cl)c3OC[C@H]2C1` (stereo partly drawn) [Z532, (6aR)-8-acryloyl-4-chloro-1-(3,3-difluoro-5′,5′-dimethyl-[1,3′-bipyrrolidin]-1′-yl)-3-(2-fluorophenyl)-6,6a,7,8,9,10-hexahydro-12H-pyrazino[2,1-c]pyrido[3,4-f][1,4]oxazepin-12-one], the IC50 in experiment [1] was determined as 85 nM; at KRAS G12C, 44 nM.
